From the supplement of paper PMC10307832

Key:
Test in all cases: relative viability (nuclei count vs DMSO), 5 days (fraction); higher = more cells survive
NCI-H2405 = system: NCI-H2405
Method in brief: (§1)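 One day after seeding in 1536-well plates, lung cancer cell lines were dosed by pin tool. Dosing was either single-drug or a fixed anchor-drug dose plus five library-drug doses (not always all listed) in √10 steps. After 5 days, nuclei were stained in one fix-and-stain step and counted on 4× images, and relative viability is the nuclei count of treated wells over that of vehicle wells, given as the median of duplicate plates.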

PC-14 = system: PC-14
Method in brief: as §1

HARA = system: HARA
Method in brief: as §1

NCI-H2009 = system: NCI-H2009
Method in brief: as §1

NCI-H460 = system: NCI-H460
Method in brief: as §1

NCI-H2023 = system: NCI-H2023
Method in brief: as §1

PC-3 [JPC-3] = system: PC-3 [JPC-3]
Method in brief: as §1

UMC-11 = system: UMC-11
Method in brief: as §1

NCI-H1915 = system: NCI-H1915
Method in brief: as §1

NCI-H1793 = system: NCI-H1793
Method in brief: as §1

SK-LU-1 = system: SK-LU-1
Method in brief: as §1

NCI-H596 = system: NCI-H596
Method in brief: as §1

NCI-H1755 = system: NCI-H1755
Method in brief: as §1

HCC-15 = system: HCC-15
Method in brief: as §1

NCI-H441 = system: NCI-H441
Method in brief: as §1

NCI-H3122 = system: NCI-H3122
Method in brief: as §1

HCC-366 = system: HCC-366
Method in brief: as §1

NCI-H1975 = system: NCI-H1975
Method in brief: as §1

A-427 = system: A-427
Method in brief: as §1

NCI-H650 = system: NCI-H650
Method in brief: as §1

H3255 = system: H3255
Method in brief: as §1

NCI-H1437 = system: NCI-H1437
Method in brief: as §1

LXF-289 = system: LXF-289
Method in brief: as §1

O=C(O)CCCCC(CCSCc1ccccc1)SCc1ccccc1 (centres undefined) [CPI-613] + C[C@]1(O)C[C@@H](c2nc(-c3ccc4ccc(-c5ccccc5)nc4c3)c3c(N)nccn32)C1 [Linsitinib] (partner 1 µM)
relative viability (NCI-H2405; first compound 5 µM): 0.979 | relative viability (NCI-H2405; first compound 15.81 µM): 0.897 | relative viability (NCI-H2405; first compound 50 µM): 0.895 | relative viability (NCI-H2405; first compound 158.11 µM): 0.818 | relative viability (NCI-H2405; first compound 500 µM): 0.773 | relative viability (PC-14; first compound 5 µM): 0.941 | relative viability (PC-14; first compound 15.81 µM): 0.874 | relative viability (PC-14; first compound 50 µM): 0.928 | relative viability (PC-14; first compound 158.11 µM): 0.857 | relative viability (PC-14; first compound 500 µM): 1.02 | relative viability (HARA; first compound 5 µM): 0.906 | relative viability (HARA; first compound 15.81 µM): 0.864 | relative viability (HARA; first compound 50 µM): 0.991 | relative viability (HARA; first compound 158.11 µM): 0.44 | relative viability (HARA; first compound 500 µM): 0.0277 | relative viability (NCI-H2009; first compound 5 µM): 1.17 | relative viability (NCI-H2009; first compound 15.81 µM): 1.18 | relative viability (NCI-H2009; first compound 50 µM): 1.18 | relative viability (NCI-H2009; first compound 158.11 µM): 0.559 | relative viability (NCI-H2009; first compound 500 µM): 0.019 | relative viability (NCI-H460; first compound 5 µM): 0.751 | relative viability (NCI-H460; first compound 15.81 µM): 0.737 | relative viability (NCI-H460; first compound 50 µM): 0.78 | relative viability (NCI-H460; first compound 158.11 µM): 0.125 | relative viability (NCI-H460; first compound 500 µM): 0.0075 | relative viability (NCI-H2023; first compound 5 µM): 0.614 | relative viability (NCI-H2023; first compound 15.81 µM): 0.698 | relative viability (NCI-H2023; first compound 50 µM): 0.668 | relative viability (NCI-H2023; first compound 158.11 µM): 0.243 | relative viability (NCI-H2023; first compound 500 µM): 0.0069 | relative viability (PC-3 [JPC-3]; first compound 5 µM): 0.953 | relative viability (PC-3 [JPC-3]; first compound 15.81 µM): 0.854 | relative viability (PC-3 [JPC-3]; first compound 50 µM): 0.883 | relative viability (PC-3 [JPC-3]; first compound 158.11 µM): 0.588 | relative viability (PC-3 [JPC-3]; first compound 500 µM): 0.64 | relative viability (UMC-11; first compound 5 µM): 0.881 | relative viability (UMC-11; first compound 15.81 µM): 1 | relative viability (UMC-11; first compound 50 µM): 0.992 | relative viability (UMC-11; first compound 158.11 µM): 0.282 | relative viability (UMC-11; first compound 500 µM): 0.0946 | relative viability (NCI-H1915; first compound 5 µM): 1.11 | relative viability (NCI-H1915; first compound 15.81 µM): 1.07 | relative viability (NCI-H1915; first compound 50 µM): 1.04 | relative viability (NCI-H1915; first compound 158.11 µM): 0.964 | relative viability (NCI-H1915; first compound 500 µM): 0.626 | relative viability (NCI-H1793; first compound 5 µM): 0.822 | relative viability (NCI-H1793; first compound 50 µM): 0.823 | relative viability (NCI-H1793; first compound 158.11 µM): 0.774 | relative viability (NCI-H1793; first compound 500 µM): 0.102 | relative viability (SK-LU-1; first compound 5 µM): 1.04 | relative viability (SK-LU-1; first compound 15.81 µM): 0.93 | relative viability (SK-LU-1; first compound 50 µM): 0.893 | relative viability (SK-LU-1; first compound 158.11 µM): 0.177 | relative viability (SK-LU-1; first compound 500 µM): 0.122 | relative viability (NCI-H596; first compound 5 µM): 1.02 | relative viability (NCI-H596; first compound 15.81 µM): 1.04 | relative viability (NCI-H596; first compound 50 µM): 1.14 | relative viability (NCI-H596; first compound 158.11 µM): 0.519 | relative viability (NCI-H596; first compound 500 µM): 0.0361 | relative viability (NCI-H1755; first compound 5 µM): 0.991 | relative viability (NCI-H1755; first compound 15.81 µM): 0.977 | relative viability (NCI-H1755; first compound 50 µM): 0.9 | relative viability (NCI-H1755; first compound 158.11 µM): 0.888 | relative viability (NCI-H1755; first compound 500 µM): 0.152 | relative viability (HCC-15; first compound 5 µM): 0.878 | relative viability (HCC-15; first compound 15.81 µM): 0.845 | relative viability (HCC-15; first compound 50 µM): 0.794 | relative viability (HCC-15; first compound 158.11 µM): 0.467 | relative viability (HCC-15; first compound 500 µM): 0.359 | relative viability (NCI-H441; first compound 5 µM): 0.521 | relative viability (NCI-H441; first compound 15.81 µM): 0.59 | relative viability (NCI-H441; first compound 50 µM): 0.605 | relative viability (NCI-H441; first compound 158.11 µM): 0.255 | relative viability (NCI-H441; first compound 500 µM): 0.132 | relative viability (NCI-H3122; first compound 5 µM): 0.985 | relative viability (NCI-H3122; first compound 15.81 µM): 1.02 | relative viability (NCI-H3122; first compound 50 µM): 0.988 | relative viability (NCI-H3122; first compound 158.11 µM): 0.644 | relative viability (NCI-H3122; first compound 500 µM): 0.0543 | relative viability (HCC-366; first compound 5 µM): 0.601 | relative viability (HCC-366; first compound 15.81 µM): 0.637 | relative viability (HCC-366; first compound 50 µM): 0.597 | relative viability (HCC-366; first compound 158.11 µM): 0.587 | relative viability (HCC-366; first compound 500 µM): 0.0054 | relative viability (NCI-H1975; first compound 5 µM): 0.938 | relative viability (NCI-H1975; first compound 15.81 µM): 1.03 | relative viability (NCI-H1975; first compound 50 µM): 1.13 | relative viability (NCI-H1975; first compound 158.11 µM): 0.541 | relative viability (NCI-H1975; first compound 500 µM): 0.0601 | relative viability (A-427; first compound 5 µM): 1.1 | relative viability (A-427; first compound 15.81 µM): 1.12 | relative viability (A-427; first compound 50 µM): 1.02 | relative viability (A-427; first compound 158.11 µM): 0.847 | relative viability (A-427; first compound 500 µM): 0.618 | relative viability (NCI-H650; first compound 5 µM): 0.905 | relative viability (NCI-H650; first compound 15.81 µM): 0.807 | relative viability (NCI-H650; first compound 50 µM): 0.975 | relative viability (NCI-H650; first compound 158.11 µM): 0.746 | relative viability (NCI-H650; first compound 500 µM): 0.747 | relative viability (H3255; first compound 5 µM): 0.915 | relative viability (H3255; first compound 15.81 µM): 0.989 | relative viability (H3255; first compound 50 µM): 0.969 | relative viability (H3255; first compound 158.11 µM): 0.948 | relative viability (H3255; first compound 500 µM): 0.921 | relative viability (NCI-H1437; first compound 5 µM): 1.03 | relative viability (NCI-H1437; first compound 15.81 µM): 0.902 | relative viability (NCI-H1437; first compound 50 µM): 0.916 | relative viability (NCI-H1437; first compound 158.11 µM): 0.137 | relative viability (NCI-H1437; first compound 500 µM): 0.0235 | relative viability (LXF-289; first compound 5 µM): 0.997 | relative viability (LXF-289; first compound 15.81 µM): 0.969 | relative viability (LXF-289; first compound 50 µM): 0.921 | relative viability (LXF-289; first compound 158.11 µM): 0.269 | relative viability (LXF-289; first compound 500 µM): 0.0192
